ChEMBL document CHEMBL3885881, “DrugMatrix”

Species: Rattus norvegicus
Assay: DrugMatrix - Regimen: Daily Repeat
Format: toxicity, organism-based, Sprague-Dawley
Parameters: regimen Daily Repeat, gender Male, age 6-8 weeks
Settings: in vivo, po, route oral GAVAGE, vehicle 100 % WATER; for ABSOLUTE BASOPHIL / ABSOLUTE EOSINOPHIL / ABSOLUTE LYMPHOCYTE / ABSOLUTE MONOCYTE / ABSOLUTE SEGMENTED NEUTROPHIL / BASOPHIL / EOSINOPHIL / ERYTHROCYTE COUNT / HEMATOCRIT / HEMOGLOBIN / LEUKOCYTE COUNT / LYMPHOCYTE / MEAN CORPUSCULAR HEMOGLOBIN / MEAN CORPUSCULAR HEMOGLOBIN CONCENTRATION / MEAN CORPUSCULAR VOLUME / MONOCYTE / NEUTROPHIL / NUCLEATED RED BLOOD CELLS / PLATELET COUNT: tissue Blood; for ALANINE AMINOTRANSFERASE / ALBUMIN / ALKALINE PHOSPHATASE / ASPARTATE AMINOTRANSFERASE / BLOOD UREA NITROGEN / CARBON DIOXIDE / CHLORIDE / CHOLESTEROL / CREATINE PHOSPHOKINASE / CREATININE / GLUCOSE / LACTATE DEHYDROGENASE / LIPASE / PHOSPHORUS / POTASSIUM / SODIUM / TOTAL BILIRUBIN / TOTAL PROTEIN / URIC ACID: tissue Plasma
[1] = 13 mg/kg, 72 h, dose level Low, time 3 day
[2] = 13 mg/kg, 120 h, dose level Low, time 5 day
[3] = 300 mg/kg, 72 h, dose level High, time 3 day
[4] = 300 mg/kg, 120 h, dose level High, time 5 day

## OC(CCCN1CCCCC1)(c1ccccc1)c1ccccc1 [DIPHENIDOL]
[1]
  ABSOLUTE BASOPHIL: 0 CELLS/uL
  ABSOLUTE EOSINOPHIL: 54.67 CELLS/uL
  ABSOLUTE LYMPHOCYTE: 13934 CELLS/uL
  ABSOLUTE MONOCYTE: 204 CELLS/uL
  ABSOLUTE SEGMENTED NEUTROPHIL: 740.67 CELLS/uL
  BASOPHIL: 0%
  EOSINOPHIL: 0.33%
  ERYTHROCYTE COUNT: 5.67 x10E6/uL
  HEMATOCRIT: 36.33%
  HEMOGLOBIN: 14.43 G/DL
  LEUKOCYTE COUNT: 14.93 x10E3/uL
  LYMPHOCYTE: 93.33%
  MEAN CORPUSCULAR HEMOGLOBIN: 25.47 pg
  MEAN CORPUSCULAR HEMOGLOBIN CONCENTRATION: 39.7 G/DL
  MEAN CORPUSCULAR VOLUME: 64.07 fL
  MONOCYTE: 1.33%
  NEUTROPHIL: 5%
  NUCLEATED RED BLOOD CELLS: 0 /100WBC
  PLATELET COUNT: 1276.67 x10E3/uL
  ALANINE AMINOTRANSFERASE: 58.33 u/L
  ALBUMIN: 4.23 G/DL
  ALKALINE PHOSPHATASE: 408.67 u/L
  ASPARTATE AMINOTRANSFERASE: 99.33 u/L
  BLOOD UREA NITROGEN: 17.33 mg/dL
  CARBON DIOXIDE: 25 mmol/L
  CHLORIDE: 102.33 MEQ/L
  CHOLESTEROL: 72 mg/dL
  CREATINE PHOSPHOKINASE: 574 u/L
  CREATININE: 0.29 mg/dL
  GLUCOSE: 169.33 mg/dL
  LACTATE DEHYDROGENASE: 402.67 u/L
  LIPASE: 9.67 u/L
  PHOSPHORUS: 13.97 mg/dL
  POTASSIUM: 7.15 MEQ/L
  SODIUM: 146.43 MEQ/L
  TOTAL BILIRUBIN: 0.2 mg/dL
  TOTAL PROTEIN: 5.77 G/DL
  URIC ACID: 3.3 mg/dL
[2]
  ABSOLUTE BASOPHIL: 0 CELLS/uL
  ABSOLUTE EOSINOPHIL: 69 CELLS/uL
  ABSOLUTE LYMPHOCYTE: 13769 CELLS/uL
  ABSOLUTE MONOCYTE: 0 CELLS/uL
  ABSOLUTE SEGMENTED NEUTROPHIL: 1595.33 CELLS/uL
  BASOPHIL: 0%
  EOSINOPHIL: 0.33%
  ERYTHROCYTE COUNT: 5.45 x10E6/uL
  HEMATOCRIT: 34.73%
  HEMOGLOBIN: 13.73 G/DL
  LEUKOCYTE COUNT: 15.43 x10E3/uL
  LYMPHOCYTE: 89.67%
  MEAN CORPUSCULAR HEMOGLOBIN: 25.2 pg
  MEAN CORPUSCULAR HEMOGLOBIN CONCENTRATION: 39.53 G/DL
  MEAN CORPUSCULAR VOLUME: 63.8 fL
  MONOCYTE: 0%
  NEUTROPHIL: 10%
  NUCLEATED RED BLOOD CELLS: 0 /100WBC
  PLATELET COUNT: 1177.33 x10E3/uL
  ALANINE AMINOTRANSFERASE: 49 u/L
  ALBUMIN: 4.23 G/DL
  ALKALINE PHOSPHATASE: 358.67 u/L
  ASPARTATE AMINOTRANSFERASE: 78 u/L
  BLOOD UREA NITROGEN: 18.67 mg/dL
  CARBON DIOXIDE: 28 mmol/L
  CHLORIDE: 101.67 MEQ/L
  CHOLESTEROL: 68.67 mg/dL
  CREATINE PHOSPHOKINASE: 194.33 u/L
  CREATININE: 0.17 mg/dL
  GLUCOSE: 148.33 mg/dL
  LACTATE DEHYDROGENASE: 83.67 u/L
  LIPASE: 9 u/L
  PHOSPHORUS: 12.13 mg/dL
  POTASSIUM: 6.32 MEQ/L
  SODIUM: 146.57 MEQ/L
  TOTAL BILIRUBIN: 0.17 mg/dL
  TOTAL PROTEIN: 5.97 G/DL
  URIC ACID: 1.13 mg/dL
[3]
  ABSOLUTE BASOPHIL: 0 CELLS/uL
  ABSOLUTE EOSINOPHIL: 58 CELLS/uL
  ABSOLUTE LYMPHOCYTE: 16577.33 CELLS/uL
  ABSOLUTE MONOCYTE: 58 CELLS/uL
  ABSOLUTE SEGMENTED NEUTROPHIL: 1540 CELLS/uL
  BASOPHIL: 0%
  EOSINOPHIL: 0.33%
  ERYTHROCYTE COUNT: 5.58 x10E6/uL
  HEMATOCRIT: 35.57%
  HEMOGLOBIN: 14.3 G/DL
  LEUKOCYTE COUNT: 18.23 x10E3/uL
  LYMPHOCYTE: 91%
  MEAN CORPUSCULAR HEMOGLOBIN: 25.63 pg
  MEAN CORPUSCULAR HEMOGLOBIN CONCENTRATION: 40.17 G/DL
  MEAN CORPUSCULAR VOLUME: 63.8 fL
  MONOCYTE: 0.33%
  NEUTROPHIL: 8.33%
  NUCLEATED RED BLOOD CELLS: 0 /100WBC
  PLATELET COUNT: 1352.67 x10E3/uL
  ALANINE AMINOTRANSFERASE: 52 u/L
  ALBUMIN: 4.3 G/DL
  ALKALINE PHOSPHATASE: 318.33 u/L
  ASPARTATE AMINOTRANSFERASE: 74 u/L
  BLOOD UREA NITROGEN: 15.67 mg/dL
  CARBON DIOXIDE: 24.67 mmol/L
  CHLORIDE: 103.33 MEQ/L
  CHOLESTEROL: 80.33 mg/dL
  CREATINE PHOSPHOKINASE: 184 u/L
  CREATININE: 0.24 mg/dL
  GLUCOSE: 156.67 mg/dL
  LACTATE DEHYDROGENASE: 139.67 u/L
  LIPASE: 9 u/L
  PHOSPHORUS: 13.97 mg/dL
  POTASSIUM: 7.22 MEQ/L
  SODIUM: 146.87 MEQ/L
  TOTAL BILIRUBIN: 0.13 mg/dL
  TOTAL PROTEIN: 6.27 G/DL
  URIC ACID: 1.77 mg/dL
[4]
  ABSOLUTE BASOPHIL: 0 CELLS/uL
  ABSOLUTE EOSINOPHIL: 44 CELLS/uL
  ABSOLUTE LYMPHOCYTE: 14983.33 CELLS/uL
  ABSOLUTE MONOCYTE: 56.33 CELLS/uL
  ABSOLUTE SEGMENTED NEUTROPHIL: 783 CELLS/uL
  BASOPHIL: 0%
  EOSINOPHIL: 0.33%
  ERYTHROCYTE COUNT: 5.89 x10E6/uL
  HEMATOCRIT: 35.8%
  HEMOGLOBIN: 14.47 G/DL
  LEUKOCYTE COUNT: 15.87 x10E3/uL
  LYMPHOCYTE: 94.33%
  MEAN CORPUSCULAR HEMOGLOBIN: 24.63 pg
  MEAN CORPUSCULAR HEMOGLOBIN CONCENTRATION: 40.43 G/DL
  MEAN CORPUSCULAR VOLUME: 60.97 fL
  MONOCYTE: 0.33%
  NEUTROPHIL: 5%
  NUCLEATED RED BLOOD CELLS: 0.33 /100WBC
  PLATELET COUNT: 1311 x10E3/uL
  ALANINE AMINOTRANSFERASE: 67.67 u/L
  ALBUMIN: 4.47 G/DL
  ALKALINE PHOSPHATASE: 383 u/L
  ASPARTATE AMINOTRANSFERASE: 106.33 u/L
  BLOOD UREA NITROGEN: 14.33 mg/dL
  CARBON DIOXIDE: 23 mmol/L
  CHLORIDE: 101 MEQ/L
  CHOLESTEROL: 53.67 mg/dL
  CREATINE PHOSPHOKINASE: 291 u/L
  CREATININE: 0.27 mg/dL
  GLUCOSE: 161 mg/dL
  LACTATE DEHYDROGENASE: 445 u/L
  LIPASE: 11 u/L
  PHOSPHORUS: 14.9 mg/dL
  POTASSIUM: 6.65 MEQ/L
  SODIUM: 146.5 MEQ/L
  TOTAL BILIRUBIN: 0.1 mg/dL
  TOTAL PROTEIN: 6.2 G/DL
  URIC ACID: 2.83 mg/dL
